From patent US10047104B2, “Bicyclic heterocyclyl derivatives as IRAK4 inhibitors” (Aurigene Discovery Technologies Limited, priority 2014, dated 2018)
Counter-ions that a name gives are not always drawn.

Target: T1, recombinant IRAK-4 kinase (Homo sapiens, UniProt Q9NWZ3)
T1 construct: purchased Millipore, USA
T1 sequence (Q9NWZ3 1-460): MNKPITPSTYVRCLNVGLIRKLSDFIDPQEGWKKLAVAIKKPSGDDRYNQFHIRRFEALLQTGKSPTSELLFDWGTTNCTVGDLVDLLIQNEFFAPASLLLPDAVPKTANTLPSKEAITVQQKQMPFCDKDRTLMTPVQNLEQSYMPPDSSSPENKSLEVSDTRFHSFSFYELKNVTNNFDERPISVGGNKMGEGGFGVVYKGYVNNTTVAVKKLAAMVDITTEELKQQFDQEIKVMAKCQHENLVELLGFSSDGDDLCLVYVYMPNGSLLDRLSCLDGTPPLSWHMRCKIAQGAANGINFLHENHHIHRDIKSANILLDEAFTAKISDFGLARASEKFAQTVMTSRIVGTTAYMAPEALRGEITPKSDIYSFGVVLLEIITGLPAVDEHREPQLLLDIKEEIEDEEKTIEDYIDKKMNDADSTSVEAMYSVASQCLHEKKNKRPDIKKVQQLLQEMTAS
Experiment: IRAK-4 Biochemical Assay (TR-FRET)
Conditions: 5 ng IRAK-4 kinase, 100 nM Biotin Histone H3, 20 μM ATP, 30 minutes pre-incubation, read-out: IC50 values for IRAK4 activity
Procedure, shortened: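 Recombinant IRAK-4 (5 ng) pre-incubated with compound 30 min at room temperature in Tris-HCl pH 7.5 with MgCl2/MnCl2, then 100 nM biotin-histone H3 and 20 μM ATP added for 30 min. Stopped with EDTA; phospho-Ser10 read by TR-FRET (Eu-antibody/APC-streptavidin).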

IC50 [nM] | Compound
> 100 | Cc1cc(-c2ccc(C(=O)Nc3cc4oc(N5CCOCC5)nc4nc3N3CC[C@H](O)C3)s2)ccn1 [Example 108, (S)—N-(5-(3-hydroxypyrrolidin-1-yl)-2-morpholinooxazolo[4,5-b]pyridin-6-yl)-5-(2-methylpyridin-4-yl)thiophene-2-carboxamide]
> 100 | Cc1cc(-c2nc(C(=O)Nc3cc4oc(N5CCCCC5)nc4nc3N3CCC3)co2)ccn1 [Example 109, N-(5-(azetidin-1-yl)-2-(piperidin-1-yl)oxazolo[4,5-b]pyridin-6-yl)-2-(2-methylpyridin-4-yl)oxazole-4-carboxamide]
< 50 | Cc1cc(-c2nc(C(=O)Nc3cc4oc(N5CCOCC5)nc4nc3N3CCC3)co2)ccn1 [Example 110, N-(5-(azetidin-1-yl)-2-morpholinooxazolo[4,5-b]pyridin-6-yl)-2-(2-methylpyridin-4-yl)oxazole-4-carboxamide]
< 50 | Cc1cc(-c2nc(C(=O)Nc3cc4oc(N5CCCCC5)nc4nc3N3CCCC3)co2)ccn1 [Example 111, 2-(2-methylpyridin-4-yl)-N-(2-(piperidin-1-yl)-5-(pyrrolidin-1-yl)oxazolo[4,5-b]pyridin-6-yl)oxazole-4-carboxamide]
> 100 | Cc1cc(-c2nc(C(=O)Nc3cc4oc(N5CCOCC5)nc4nc3N3CCCC3)co2)ccn1 [Example 112, 2-(2-methylpyridin-4-yl)-N-(2-morpholino-5-(pyrrolidin-1-yl)oxazolo[4,5-b]pyridin-6-yl)oxazole-4-carboxamide]
< 50 | Cc1cc(-c2ccc(C(=O)Nc3cc4oc(N5CCOCC5)nc4nc3N3CCCCC3)o2)ccn1 [Example 113, 5-(2-methylpyridin-4-yl)-N-(2-morpholino-5-(piperidin-1-yl)oxazolo[4,5-b]pyridin-6-yl)furan-2-carboxamide]
< 50 | Cc1cc(-c2ccc(C(=O)Nc3cc4oc(N5CCOCC5)nc4nc3N3CCC(O)CC3)o2)ccn1 [Example 114, N-(5-(4-hydroxypiperidin-1-yl)-2-morpholinooxazolo[4,5-b]pyridin-6-yl)-5-(2-methylpyridin-4-yl)furan-2-carboxamide]
< 50 | Cc1cc(-c2ccc(C(=O)Nc3cc4oc(N5CCOCC5)nc4nc3N3CCC[C@@H](O)C3)o2)ccn1 [Example 115, (R)—N-(5-(3-hydroxypiperidin-1-yl)-2-morpholinooxazolo[4,5-b]pyridin-6-yl)-5-(2-methylpyridin-4-yl)furan-2-carboxamide]
< 50 | Cc1cc(-c2nc(C(=O)Nc3cc4oc(N5CCOCC5)nc4nc3-c3ccoc3)co2)ccn1 [Example 116, N-(5-(furan-3-yl)-2-morpholinooxazolo[4,5-b]pyridin-6-yl)-2-(2-methylpyridin-4-yl)oxazole-4-carboxamide]
< 50 | Cc1cc(-c2nc(C(=O)Nc3cc4sc(N5CCOCC5)nc4nc3N3CCC[C@H](N)C3)co2)ccn1 [Example 120, (S)—N-(5-(3-aminopiperidin-1-yl)-2-morpholinothiazolo[4,5-b]pyridin-6-yl)-2-(2-methylpyridin-4-yl)oxazole-4-carboxamide hydrochloride]
< 50 | Cc1cc(-c2nc(C(=O)Nc3cc4sc(N5CCOCC5)nc4nc3-c3cn[nH]c3)co2)ccn1 [Example 121, 2-(2-methylpyridin-4-yl)-N-(2-morpholino-5-(1H-pyrazol-4-yl)thiazolo[4,5-b]pyridin-6-yl)oxazole-4-carboxamide]
< 50 | Cc1cc(-c2nc(C(=O)Nc3cc4sc(N5CCOCC5)nc4nc3-c3ccc(F)nc3)co2)ccn1 [Example 122, N-(5-(6-fluoropyridin-3-yl)-2-morpholinothiazolo[4,5-b]pyridin-6-yl)-2-(2-methylpyridin-4-yl)oxazole-4-carboxamide]
< 50 | Cc1cc(-c2nc(C(=O)Nc3cc4sc(N5CCOCC5)nc4nc3N3C4CCC3CC(O)C4)co2)ccn1 (stereo not shown) [Example 123, N-(5-(3-hydroxy-8-azabicyclo[3.2.1]octan-8-yl)-2-morpholinothiazolo[4,5-b]pyridin-6-yl)-2-(2-methylpyridin-4-yl)oxazole-4-carboxamide]
